{
  "source": "patent US9987280B2",
  "about": "“SIRT1 inhibitors and stem cell rejuvenation” (City of Hope, priority 2013, dated 2018)",
  "key": {"[1]": {"tested_on": "Ku70", "assay": "Immunoprecipitation of LSD1 or SIRT1 in KCL-22 cells to detect interaction with Ku70", "format": "cell-based", "method": "IP of LSD1 or SIRT1 was carried out in KCL-22 cells to detect their interaction with Ku70, respectively. […] (B) Without and with treatment of 1 mM H2O2 for 1 h and 0.25 μM camptothecin (CPT) for 12 h. Flag was used for IP control.\nTo explore the mechanisms, Applicants used immunoprecipitation (IP) assay to examine SIRT1, LSD1 and Ku70 interaction."}, "[2]": {"tested_on": "KCL-22 CML cells", "conditions": "KCL-22 CML cells upon imatinib treatment; cited from earlier work"}, "[3]": {"tested_on": "Burkitt lymphoma", "conditions": "single agent; cited from earlier work"}, "[4]": {"conditions": "2.5 μM imatinib (STI) for 24 and 48 h"}},
  "data": [
    {"smiles": "OO", "note": "[hydrogen peroxide]", "values": [
      {"measurement": "LSD1/SIRT1 interaction with Ku70", "setting": "[1]; 1 mM H2O2 for 1 h", "value": "switch of LSD1/SIRT1 interaction with Ku70"}
    ]},
    {"smiles": "Cc1ccc(NC(=O)c2ccc(CN3CCN(C)CC3)cc2)cc1Nc1nccc(-c2cccnc2)n1", "note": "[imatinib]", "values": [
      {"measurement": "LSD1 interaction with Ku70", "setting": "[1]; [4]", "value": "reduced"},
      {"measurement": "SIRT1 interaction with Ku70", "setting": "[1]; [4]", "value": "rapidly enhanced"},
      {"measurement": "total SIRT1 level", "setting": "[1]; 48 h drug treatment", "value": "partially reduced"},
      {"measurement": "acquisition of T315I BCR-ABL kinase domain mutation", "setting": "[2]", "value": "rapidly acquire T315I BCR-ABL kinase domain mutation"}
    ]},
    {"smiles": "CC[C@@]1(O)C(=O)OCc2c1cc1n(c2=O)Cc2cc3ccccc3nc2-1", "note": "[camptothecin]", "values": [
      {"measurement": "LSD1/SIRT1 interaction with Ku70", "setting": "[1]; 0.25 μM camptothecin (CPT) for 12 h", "value": "switch of LSD1/SIRT1 interaction with Ku70"}
    ]},
    {"smiles": "O=c1[nH]c(S)nc(-c2ccccc2)c1Cc1c(O)ccc2ccccc12", "note": "[cambinol, 5-[(2-hydroxy-1-naphthyl)methyl]-2-mercapto-6-phenyl-4(3H)-pyrimidinone]", "values": [
      {"measurement": "sensitivity of Burkitt lymphoma", "setting": "[3]", "value": "sensitive"}
    ]}
  ]
}
